Tests used:
human thrombin = target: T1, human thrombin (Homo sapiens, UniProt P00734); assay: Enzyme selectivity evaluation test: thrombin; type: biochemical
T1 construct: human thrombin (manufactured by Enzyme Research Laboratories); purchased Enzyme Research Laboratories
Experimental: S-2366 (pyroGlu-Pro-Arg-pNA.HCl) was added as the substrate at a final concentration of 300 μmol/L. After progression of the reaction, the absorbance was measured at OD 405 nm.

Mouse plasma = assay: Species difference test: aPTT prolongation in plasma; type: biochemical
Experimental: (§1) The compound of Reference Example 2-6 dissolved in DMSO was added at final concentrations of 0.03 to 200 μmol/L to the plasma of each animal species prepared using 3.2% sodium citrate. The solution was incubated at 37° C. for 6 minutes. Then, an STA reagent Cephascreen (for aPTT assay; manufactured by Roche Diagnostics K.K.) was added thereto in an amount equal to the total amount of the plasma and the DMSO solution, and the mixture was further incubated for 4 minutes. Then, STA calcium chloride (manufactured by Roche Diagnostics K.K.) was added thereto in an amount equal to the total amount of the plasma and the DMSO solution, and the time required for coagulation was measured. The concentration at which the coagulation time was prolonged two times (EC2x) was calculated for each plasma.

Rabbit plasma = assay: as above; type: biochemical
Experimental: as §1

Dog plasma = assay: as above; type: biochemical
Experimental: as §1

Cynomolgus monkey plasma = assay: as above; type: biochemical
Experimental: as §1

human plasma = assay: as above; type: biochemical
Experimental: as §1

Rat plasma = assay: as above; type: biochemical
Experimental: as §1

Human tryptase = assay: Enzyme selectivity evaluation test: tryptase; type: biochemical
Experimental: S-2288 (H-D-Ile-Pro-Arg-pNA.2HCl) was added as the substrate at a final concentration of 300 μmol/L. After progression of the reaction, the absorbance was measured at OD 405 nm.

Human FXa = target: T2, Human FXa (Homo sapiens, UniProt P00742); assay: Enzyme selectivity evaluation test: FXa; type: biochemical
T2 construct: 4) Factor Xa (FXa); purchased Enzyme Research Laboratories
T2 sequence (P00742 235-488 limits assumed): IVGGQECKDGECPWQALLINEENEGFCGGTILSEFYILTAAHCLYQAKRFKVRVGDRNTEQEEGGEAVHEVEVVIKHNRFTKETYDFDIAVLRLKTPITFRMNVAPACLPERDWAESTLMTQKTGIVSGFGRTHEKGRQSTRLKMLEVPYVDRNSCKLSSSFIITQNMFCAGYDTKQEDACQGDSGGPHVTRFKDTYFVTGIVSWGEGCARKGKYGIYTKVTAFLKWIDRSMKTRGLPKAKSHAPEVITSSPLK
T2 sequence (P00742 41-179 partner limits assumed): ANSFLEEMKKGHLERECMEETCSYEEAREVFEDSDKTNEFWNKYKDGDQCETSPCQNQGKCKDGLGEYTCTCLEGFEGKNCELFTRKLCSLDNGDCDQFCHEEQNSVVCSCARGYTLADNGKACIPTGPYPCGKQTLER
Experimental: S-2222 (Bz-Ile-Glu(γ-OR)-Gly-Arg-pNAHC1 (SEQ ID NO: 1), R═H (50%) and R═CH3 (50%)) (manufactured by Chromogenix) was added as the substrate at a final concentration of 150 μmol/L. After progression of the reaction, the absorbance was measured at OD 405 nm.

Human Trypsin = assay: Enzyme selectivity evaluation test: trypsin; type: biochemical
Experimental: S-2222 (Bz-Ile-Glu(γ-OR)-Gly-Arg-pNA.HCl (SEQ ID NO: 1), R═H (50%) and R═CH3 (50%)) was added as the substrate at a final concentration of 150 μmol/L. After progression of the reaction, the absorbance was measured at OD 405 nm.

[1] = target: T3, Tissue Factor (TF):Factor VIIa (FVIIa) Complex (Homo sapiens, UniProt P08709); assay: Enzyme selectivity evaluation test: TF:FVIIa complex; type: biochemical
T3 construct: Human FVIIa (manufactured by Enzyme Research Laboratories); purchased Enzyme Research Laboratories (FVIIa); R&D Systems, Inc. (TF)
T3 sequence (P08709 213-466 limits assumed): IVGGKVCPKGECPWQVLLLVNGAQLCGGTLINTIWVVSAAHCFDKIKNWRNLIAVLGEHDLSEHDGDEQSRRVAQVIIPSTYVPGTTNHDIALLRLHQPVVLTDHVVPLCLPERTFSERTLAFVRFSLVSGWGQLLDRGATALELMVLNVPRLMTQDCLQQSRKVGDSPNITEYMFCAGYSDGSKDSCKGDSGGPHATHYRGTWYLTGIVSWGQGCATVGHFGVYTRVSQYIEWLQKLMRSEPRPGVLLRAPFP
T3 sequence (P08709 61-212 partner limits assumed): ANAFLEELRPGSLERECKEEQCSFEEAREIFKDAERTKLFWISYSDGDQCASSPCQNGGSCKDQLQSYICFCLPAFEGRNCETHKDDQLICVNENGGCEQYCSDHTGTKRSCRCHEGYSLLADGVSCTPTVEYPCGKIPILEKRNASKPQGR
T3 sequence (P13726 33-251 partner limits assumed): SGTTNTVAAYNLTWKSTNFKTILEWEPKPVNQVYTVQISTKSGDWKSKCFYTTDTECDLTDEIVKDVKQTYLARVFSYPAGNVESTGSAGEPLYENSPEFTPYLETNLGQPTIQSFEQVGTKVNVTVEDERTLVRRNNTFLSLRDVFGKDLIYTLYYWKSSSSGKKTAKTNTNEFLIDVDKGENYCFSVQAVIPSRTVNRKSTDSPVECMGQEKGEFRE
Experimental: S-2288 (H-D-Ile-Pro-Arg-pNA.2HCl) (manufactured by Chromogenix) was added as the substrate at a final concentration of 300 μmol/L. After progression of the reaction, the absorbance was measured at OD 405 nm.

Human FIXαβ = target: T4, Human FIXαβ (Homo sapiens, UniProt P00740); assay: Enzyme selectivity evaluation test: FIXa; type: biochemical
T4 construct: 3) Factor IXa (FIXa); purchased Enzyme Research Laboratories
T4 sequence (P00740 227-461 limits assumed): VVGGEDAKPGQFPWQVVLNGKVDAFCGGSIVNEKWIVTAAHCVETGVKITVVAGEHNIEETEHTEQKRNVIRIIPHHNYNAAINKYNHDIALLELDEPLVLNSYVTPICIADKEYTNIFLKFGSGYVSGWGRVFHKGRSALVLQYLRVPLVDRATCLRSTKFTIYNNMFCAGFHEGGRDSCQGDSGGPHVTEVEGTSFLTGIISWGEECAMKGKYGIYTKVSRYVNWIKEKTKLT
T4 sequence (P00740 47-191 partner limits assumed): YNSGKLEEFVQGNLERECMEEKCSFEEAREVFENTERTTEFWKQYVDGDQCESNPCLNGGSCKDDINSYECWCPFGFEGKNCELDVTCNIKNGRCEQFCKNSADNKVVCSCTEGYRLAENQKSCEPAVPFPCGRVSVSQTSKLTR
Experimental: SPECTROZYME® FIXa (D-Leu-Ph′Gly-Arg-pNA.2AcOH) (manufactured by American Diagnostica Inc.) was added as the substrate at a final concentration of 800 μmol/L. After progression of the reaction, the absorbance was measured at OD 405 nm. Change in OD in case of no addition of the test compound was defined as 100%, and the concentration at which a rise in OD value was reduced by 50% was calculated as […]

Human FXIa = Human FXIa (Homo sapiens, UniProt P03951); assay: In vitro activated factor XI (FXIa) inhibition test; type: biochemical; set-up: purchased Enzyme Research Laboratories; conditions: substrate S-2366, 37° C., 10 minutes; read-out: FXIa Inhibition activity IC50
Sequence of Human FXIa (P03951 388-625 limits assumed): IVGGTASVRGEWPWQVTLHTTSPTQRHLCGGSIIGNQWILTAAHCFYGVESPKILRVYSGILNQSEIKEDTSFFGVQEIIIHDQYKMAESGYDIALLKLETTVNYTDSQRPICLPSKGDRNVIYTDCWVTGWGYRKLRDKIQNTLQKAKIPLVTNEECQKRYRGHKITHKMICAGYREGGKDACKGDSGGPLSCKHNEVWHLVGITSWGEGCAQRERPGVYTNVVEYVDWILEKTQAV
Sequence of Human FXIa (P03951 19-387 partner limits assumed): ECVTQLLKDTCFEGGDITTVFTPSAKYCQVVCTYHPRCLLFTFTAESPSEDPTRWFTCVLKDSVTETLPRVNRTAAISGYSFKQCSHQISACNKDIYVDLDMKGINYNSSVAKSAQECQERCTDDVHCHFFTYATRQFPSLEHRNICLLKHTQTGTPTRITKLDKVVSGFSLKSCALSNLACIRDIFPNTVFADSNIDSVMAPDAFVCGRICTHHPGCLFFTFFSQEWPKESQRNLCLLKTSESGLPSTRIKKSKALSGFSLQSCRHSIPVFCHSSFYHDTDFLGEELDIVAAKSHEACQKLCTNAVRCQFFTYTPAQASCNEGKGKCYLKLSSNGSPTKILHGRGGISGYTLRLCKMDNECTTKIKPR

[2] = Dog PK test (Test Example 7); type: in vivo; conditions: plasma, 1 mg/kg, male beagle, intravenous, 1 mg/2 mL/kg, read-out: AUC from 0 hours to 24 hours (compound of Reference Example 2-6 in plasma)
Experimental: The compound of Reference Example 2-6 was dissolved in a mixed solution of saline/0.1 N HCl=9/1, and this solution was intravenously administered at a dose of 1 mg/2 mL/kg to a male beagle. Blood collection was carried out 0.25, 0.5, 1, 2, 4, 6, and 24 hours after administration. 2 mL of blood was collected using a syringe packed with 20 μL of Novo-Heparin Injection, transferred to a centrifugal tube cooled in ice, and centrifuged at 3000 rpm at 4° C. for 10 minutes to prepare plasma. 200 μL of the prepared plasma was added to a tube containing 600 μL of acetonitrile and mixed for approximately 10 seconds using a vortex mixer. Then, the concentration of the compound of Reference Example 2-6 was measured.
The compound of Example 1 was dissolved in a 0.5% aqueous methylcellulose solution, and this solution was orally administered at a dose of 5 mg/5 mL/kg to a male beagle fasted for 16 hours. Blood collection was carried out 0.5, 1, 2, 4, 6, and 24 hours after administration. 2 mL of blood was collected using a syringe packed with 20 μL of Novo-Heparin Injection, transferred to a centrifugal tube cooled in ice, and centrifuged at 3000 rpm at 4° C. for 10 minutes to prepare plasma. […] Then, the concentration of the compound of Reference Example 2-6 was measured.

## Cl.N[C@H](CF)[C@H]1CC[C@H](C(=O)N2CC[C@@H](C3CCCCC3)[C@H]2C(=O)Nc2ccc3[nH]c(C(=O)O)cc3c2)CC1 [Reference Example 2-6, 5-{[(3S)-1-({trans-4-[(1S)-1-Amino-2-fluoroethyl]cyclohexyl}carbonyl)-3-cyclohexyl-L-prolyl]amino}-1H-indole-2-carboxylic acid hydrochloride]
Human thrombin
  IC50: > 10 µM
Mouse plasma
  EC2x (concentration at which the coagulation time was prolonged two times): >200 µM
Rabbit plasma
  EC2x (concentration at which the coagulation time was prolonged two times): 34.2 µM
Dog plasma
  EC2x (concentration at which the coagulation time was prolonged two times): 34.4 µM
Cynomolgus monkey plasma
  EC2x (concentration at which the coagulation time was prolonged two times): 2.6 µM
Human plasma
  EC2x (concentration at which the coagulation time was prolonged two times): 0.6 µM
Rat plasma
  EC2x (concentration at which the coagulation time was prolonged two times): >200 µM
Human tryptase
  IC50: > 10 µM
Human FXa
  IC50: > 10 µM
Human Trypsin
  IC50: > 10 µM
[1]
  IC50: > 10 µM
Human FIXαβ
  IC50: > 10 µM
Human FXIa
  IC50: 0.006 µM
[2]
  AUC: 5220 ng·h/mL

From patent US9718840B2, “Condensed 5-oxazolidinone derivative” (SUMITOMO DAINIPPON PHARMA CO., LTD., priority 2014, dated 2017)
